Columns and labels:
[1] = test system: plasma levels of free glycerol; experiment: Effect of oral administration on plasma levels of free glycerol in the empty rat; assay type: in vivo, rat (COBS CD (SD) BR male); settings: for Percent variations of plasma free glycerol with respect to the controls: empty rat; for Activity on free glycerol: 30 mg/kg oral; for Activity on free glycerol / Time within which the effect on free glycerol disappears: rat; for Time within which the effect on free glycerol disappears: 100 mg/kg oral
[2] = test system: plasma levels of triglycerides; experiment: Effect of oral administration on plasma levels of triglycerides in the empty rat; assay type: in vivo, rat (COBS CD (SD) BR male); settings: for Percent variations of plasma triglycerides with respect to the controls: empty rat; for Time within which the effect on triglycerides disappears: rat
[3] = test system: plasma levels of cholesterol; experiment: Effect of oral administration on plasma levels of cholesterol in the empty rat; assay type: in vivo, rat (COBS CD (SD) BR male); settings: for Percent variations of plasma cholesterol with respect to the controls: 100 mg/kg oral referred to nicotinic acid, empty rat; for Lowering of cholesterolemy: 100 mg/kg oral, rat
plasma levels of FFA = experiment: Effect of oral administration on plasma levels of FFA in the empty rat; settings: for Percent variations of plasma FFA with respect to the controls: empty rat; for Time within which the effect on FFA disappears: 100 mg/kg oral, rat
[4] = 30 mg/kg oral referred to nicotinic acid, 1 h
[5] = 30 mg/kg oral referred to nicotinic acid, 2 h
[6] = 30 mg/kg oral referred to nicotinic acid, 4 h
[7] = 30 mg/kg oral referred to nicotinic acid, 6 h
[8] = 100 mg/kg oral referred to nicotinic acid, 2 h
[9] = 100 mg/kg oral referred to nicotinic acid, 4 h
[10] = 100 mg/kg oral referred to nicotinic acid, 6 h
[11] = 100 mg/kg oral referred to nicotinic acid, 8 h
[12] = 100 mg/kg oral referred to nicotinic acid, 10 h
[13] = 100 mg/kg oral referred to nicotinic acid, 16 h
[14] = 100 mg/kg oral referred to nicotinic acid, 24 h

Structure (SMILES): O=C(OCC(COC(=O)c1cccnc1)(COC(=O)c1cccnc1)COC(=O)c1cccnc1)c1cccnc1 [NICERITROLE, pentaerithritol-tetranicotinate]
- Percent variations of plasma free glycerol with respect to the controls [1, 4]: -77%
- Percent variations of plasma free glycerol with respect to the controls [1, 5]: -9%
- Percent variations of plasma free glycerol with respect to the controls [1, 6]: -4%
- Percent variations of plasma free glycerol with respect to the controls [1, 7]: +11%
- Activity on free glycerol [1]: active only after 1 hour
- Percent variations of plasma free glycerol with respect to the controls [1, 8]: -61%
- Percent variations of plasma free glycerol with respect to the controls [1, 9]: -34%
- Percent variations of plasma free glycerol with respect to the controls [1, 10]: +17%
- Percent variations of plasma free glycerol with respect to the controls [1, 11]: +11%
- Percent variations of plasma free glycerol with respect to the controls [1, 12]: +4%
- Percent variations of plasma free glycerol with respect to the controls [1, 13]: +13%
- Percent variations of plasma free glycerol with respect to the controls [1, 14]: +3%
- Time within which the effect on free glycerol disappears [1]: within the fourth hour
- Percent variations of plasma triglycerides with respect to the controls [2, 4]: -45%
- Percent variations of plasma triglycerides with respect to the controls [2, 5]: -27%
- Percent variations of plasma triglycerides with respect to the controls [2, 6]: +13%
- Percent variations of plasma triglycerides with respect to the controls [2, 7]: -6%
- Time within which the effect on triglycerides disappears ([2]; 30 mg/kg oral): ≤ 2 h
- Percent variations of plasma triglycerides with respect to the controls [2, 8]: -41%
- Percent variations of plasma triglycerides with respect to the controls [2, 9]: -56%
- Percent variations of plasma triglycerides with respect to the controls [2, 10]: -63%
- Percent variations of plasma triglycerides with respect to the controls [2, 11]: -30%
- Percent variations of plasma triglycerides with respect to the controls [2, 12]: +9%
- Percent variations of plasma triglycerides with respect to the controls [2, 13]: -3%
- Percent variations of plasma triglycerides with respect to the controls [2, 14]: +5%
- Time within which the effect on triglycerides disappears ([2]; 100 mg/kg oral): within the eighth hour
- Percent variations of plasma cholesterol with respect to the controls ([3]; 4 h): -2%
- Percent variations of plasma cholesterol with respect to the controls ([3]; 6 h): -7%
- Percent variations of plasma cholesterol with respect to the controls ([3]; 8 h): 0%
- Percent variations of plasma cholesterol with respect to the controls ([3]; 10 h): -10%
- Percent variations of plasma cholesterol with respect to the controls ([3]; 16 h): -17%
- Percent variations of plasma cholesterol with respect to the controls ([3]; 24 h): -14%
- Lowering of cholesterolemy [3]: never significant
- Percent variations of plasma FFA with respect to the controls (plasma levels of FFA; [4]): -87%
- Percent variations of plasma FFA with respect to the controls (plasma levels of FFA; [5]): -18%
- Percent variations of plasma FFA with respect to the controls (plasma levels of FFA; [6]): +9%
- Percent variations of plasma FFA with respect to the controls (plasma levels of FFA; [7]): +8%
- Percent variations of plasma FFA with respect to the controls (plasma levels of FFA; [8]): -70%
- Percent variations of plasma FFA with respect to the controls (plasma levels of FFA; [9]): -43%
- Percent variations of plasma FFA with respect to the controls (plasma levels of FFA; [10]): +27%
- Percent variations of plasma FFA with respect to the controls (plasma levels of FFA; [11]): +10%
- Percent variations of plasma FFA with respect to the controls (plasma levels of FFA; [12]): -2%
- Percent variations of plasma FFA with respect to the controls (plasma levels of FFA; [13]): +6%
- Percent variations of plasma FFA with respect to the controls (plasma levels of FFA; [14]): -8%
- Time within which the effect on FFA disappears (plasma levels of FFA): ≤ 6 h

Structure (SMILES): O=C(OC[C@H](OC(=O)c1cccnc1)[C@@H](OC(=O)c1cccnc1)[C@H](OC(=O)c1cccnc1)[C@@H](COC(=O)c1cccnc1)OC(=O)c1cccnc1)c1cccnc1 [SORBINICATE, D-glucitol hexanicotinate]
- Percent variations of plasma free glycerol with respect to the controls [1, 4]: -59%
- Percent variations of plasma free glycerol with respect to the controls [1, 5]: -27%
- Percent variations of plasma free glycerol with respect to the controls [1, 6]: +2%
- Percent variations of plasma free glycerol with respect to the controls [1, 7]: -7%
- Activity on free glycerol [1]: active only after 1 hour
- Percent variations of plasma free glycerol with respect to the controls [1, 8]: -70%
- Percent variations of plasma free glycerol with respect to the controls [1, 9]: -3%
- Percent variations of plasma free glycerol with respect to the controls [1, 10]: +3%
- Percent variations of plasma free glycerol with respect to the controls [1, 11]: +20%
- Percent variations of plasma free glycerol with respect to the controls [1, 12]: +8%
- Percent variations of plasma free glycerol with respect to the controls [1, 13]: -1%
- Percent variations of plasma free glycerol with respect to the controls [1, 14]: -1%
- Time within which the effect on free glycerol disappears [1]: within the fourth hour
- Percent variations of plasma triglycerides with respect to the controls [2, 4]: -42%
- Percent variations of plasma triglycerides with respect to the controls [2, 5]: -16%
- Percent variations of plasma triglycerides with respect to the controls [2, 6]: +6%
- Percent variations of plasma triglycerides with respect to the controls [2, 7]: -3%
- Time within which the effect on triglycerides disappears ([2]; 30 mg/kg oral): ≤ 2 h
- Percent variations of plasma triglycerides with respect to the controls [2, 8]: -61%
- Percent variations of plasma triglycerides with respect to the controls [2, 9]: -46%
- Percent variations of plasma triglycerides with respect to the controls [2, 10]: -55%
- Percent variations of plasma triglycerides with respect to the controls [2, 11]: -5%
- Percent variations of plasma triglycerides with respect to the controls [2, 12]: +9%
- Percent variations of plasma triglycerides with respect to the controls [2, 13]: -3%
- Percent variations of plasma triglycerides with respect to the controls [2, 14]: -25%
- Time within which the effect on triglycerides disappears ([2]; 100 mg/kg oral): within the eighth hour
- Percent variations of plasma cholesterol with respect to the controls ([3]; 4 h): -14%
- Percent variations of plasma cholesterol with respect to the controls ([3]; 6 h): -15%
- Percent variations of plasma cholesterol with respect to the controls ([3]; 8 h): -7%
- Percent variations of plasma cholesterol with respect to the controls ([3]; 10 h): -15%
- Percent variations of plasma cholesterol with respect to the controls ([3]; 16 h): -13%
- Percent variations of plasma cholesterol with respect to the controls ([3]; 24 h): -9%
- Lowering of cholesterolemy [3]: at the tenth hour only
- Percent variations of plasma FFA with respect to the controls (plasma levels of FFA; [4]): -56%
- Percent variations of plasma FFA with respect to the controls (plasma levels of FFA; [5]): -14%
- Percent variations of plasma FFA with respect to the controls (plasma levels of FFA; [6]): +13%
- Percent variations of plasma FFA with respect to the controls (plasma levels of FFA; [7]): -9%
- Percent variations of plasma FFA with respect to the controls (plasma levels of FFA; [8]): -72%
- Percent variations of plasma FFA with respect to the controls (plasma levels of FFA; [9]): -1%
- Percent variations of plasma FFA with respect to the controls (plasma levels of FFA; [10]): +6%
- Percent variations of plasma FFA with respect to the controls (plasma levels of FFA; [11]): +4%
- Percent variations of plasma FFA with respect to the controls (plasma levels of FFA; [12]): -5%
- Percent variations of plasma FFA with respect to the controls (plasma levels of FFA; [13]): +6%
- Percent variations of plasma FFA with respect to the controls (plasma levels of FFA; [14]): +2%
- Time within which the effect on FFA disappears (plasma levels of FFA): ≤ 4 h
